For experiment [1], the target named is T1, α-adrenergic receptor subtype 2A (Homo sapiens, UniProt P08913).
T1 sequence (P08913 1-465): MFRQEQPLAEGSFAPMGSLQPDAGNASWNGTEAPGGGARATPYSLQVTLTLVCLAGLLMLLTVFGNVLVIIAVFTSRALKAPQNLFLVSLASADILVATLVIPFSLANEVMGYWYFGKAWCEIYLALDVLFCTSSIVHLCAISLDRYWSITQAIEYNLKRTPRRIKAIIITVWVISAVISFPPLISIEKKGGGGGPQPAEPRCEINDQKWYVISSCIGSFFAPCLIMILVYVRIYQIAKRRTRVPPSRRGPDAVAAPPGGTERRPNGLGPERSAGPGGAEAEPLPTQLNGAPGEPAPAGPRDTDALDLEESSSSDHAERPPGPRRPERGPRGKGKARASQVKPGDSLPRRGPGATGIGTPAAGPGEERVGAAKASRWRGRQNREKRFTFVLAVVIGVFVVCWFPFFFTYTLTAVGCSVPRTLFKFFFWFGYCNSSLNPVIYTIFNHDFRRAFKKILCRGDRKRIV
Put plainly: Test against other receptors: α-adrenergic 2A. Format: cell-based.

The target in experiment [2] is serotonin 5-HT2A (Homo sapiens, UniProt P28223). Put plainly: Test against other receptors: serotonin 5-HT2A.
serotonin 5-HT2A, sequence (P28223 whole entry): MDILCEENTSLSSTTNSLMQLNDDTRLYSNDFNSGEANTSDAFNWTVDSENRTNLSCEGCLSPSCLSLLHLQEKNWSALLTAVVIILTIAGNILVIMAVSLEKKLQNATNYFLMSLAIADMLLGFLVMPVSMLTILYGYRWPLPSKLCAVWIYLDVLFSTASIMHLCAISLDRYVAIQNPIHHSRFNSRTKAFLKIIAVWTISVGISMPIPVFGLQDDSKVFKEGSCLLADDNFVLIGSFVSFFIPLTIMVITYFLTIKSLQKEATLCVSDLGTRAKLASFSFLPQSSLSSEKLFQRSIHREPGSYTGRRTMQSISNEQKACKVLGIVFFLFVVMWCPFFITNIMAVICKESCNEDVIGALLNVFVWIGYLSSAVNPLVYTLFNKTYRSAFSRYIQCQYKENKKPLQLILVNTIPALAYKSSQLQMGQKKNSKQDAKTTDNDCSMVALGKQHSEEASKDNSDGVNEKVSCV
In experiment [3] the target is T2, α-adrenergic receptor subtype 2B (Homo sapiens, UniProt P18089).
T2 sequence (P18089 1-450): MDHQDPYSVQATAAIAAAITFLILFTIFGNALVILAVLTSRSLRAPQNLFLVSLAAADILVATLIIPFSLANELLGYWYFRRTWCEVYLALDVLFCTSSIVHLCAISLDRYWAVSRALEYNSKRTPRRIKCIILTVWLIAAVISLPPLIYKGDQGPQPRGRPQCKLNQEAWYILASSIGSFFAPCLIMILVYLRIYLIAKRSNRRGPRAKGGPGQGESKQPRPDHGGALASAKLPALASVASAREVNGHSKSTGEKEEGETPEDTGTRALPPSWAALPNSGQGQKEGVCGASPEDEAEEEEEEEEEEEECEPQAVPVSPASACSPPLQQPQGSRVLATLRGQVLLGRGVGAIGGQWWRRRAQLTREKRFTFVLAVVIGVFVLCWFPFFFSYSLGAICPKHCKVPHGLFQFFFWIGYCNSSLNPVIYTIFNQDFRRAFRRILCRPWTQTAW
The experiment is described as follows: Test against other receptors: α-adrenergic 2B. It counts as cell-based.

For experiment [4], the target named is T3, α-adrenergic receptor subtype 1B (Homo sapiens, UniProt P35368).
T3 sequence (P35368 1-520): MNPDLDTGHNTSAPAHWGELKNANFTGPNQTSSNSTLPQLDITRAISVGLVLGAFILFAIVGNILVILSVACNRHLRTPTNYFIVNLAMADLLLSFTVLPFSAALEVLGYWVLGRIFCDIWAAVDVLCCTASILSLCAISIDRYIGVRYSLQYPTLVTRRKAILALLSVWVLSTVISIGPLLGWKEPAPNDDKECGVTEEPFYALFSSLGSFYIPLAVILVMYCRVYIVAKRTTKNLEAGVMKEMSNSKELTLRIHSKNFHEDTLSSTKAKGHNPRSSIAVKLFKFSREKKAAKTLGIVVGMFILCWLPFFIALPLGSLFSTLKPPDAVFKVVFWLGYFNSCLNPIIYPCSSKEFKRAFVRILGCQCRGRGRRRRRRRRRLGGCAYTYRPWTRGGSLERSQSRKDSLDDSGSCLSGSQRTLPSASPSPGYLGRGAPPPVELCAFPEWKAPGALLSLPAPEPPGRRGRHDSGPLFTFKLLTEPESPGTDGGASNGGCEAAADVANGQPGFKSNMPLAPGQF
Put plainly: Test against other receptors: α-adrenergic 1B. It counts as cell-based.

The results in this text go back to US7485651B2, “Compounds with activity on muscarinic receptors” (Acadia Pharmaceuticals, Inc., priority 1998, dated 2009).

For `CCCCC1CCN(CCCC(=O)c2ccccc2C)CC1` [Compound A, 4-n-Butyl-1-[4-(2-methylphenyl)-4-oxo-1-butyl]piperidine], the agonist activity result in experiment [1], in experiment [2], in experiment [3] and in experiment [4] was “no significant activity” throughout. Also, the “inhibition of receptor responses (antagonist experiments)” value in experiment [1], in experiment [2] and in experiment [3] was “did not inhibit” in each case.
